The test system of one data set is NOTCH1-induced T-ALL. The experiment in a line: Mouse model of Notch-ICN (NOTCH1)-induced T-ALL, adoptive transfer of transduced HPCs. The data set is classed as in vivo. The note with it: HPCs expressing NOTCH1-ICN plus miRNA or shRNA transplanted into irradiated recipients. As to the method: Can miR-19 drive the development of lymphatic malignancies in vivo? Based on the miR-19 expression and translocation data, miR-19 was assessed in a mouse model of T-ALL (Pear, et al., 1996). Briefly, most cases of T-ALL carry mutations in the Notch1 gene, and, like the […] translocation, these generate the constitutively active intracellular domain of NOTCH1 (Notch-ICN) (Weng, et al., 2004). To test miR-19's ability to promote Notch-ICN-induced T-ALL in vivo, HPCs were adoptively transferred into irradiated recipients (FIG. 3d). […] At the same time, 80% of the mice receiving HPCs expressing only Notch-ICN remained disease free (p=0.0003) (FIG. 3e).
The mouse models of Notch1-induced T-ALL and the EμMyc lymphoma based on adoptive transfer of retrovirally transduced HPCs have been reported (Pear, et al., 1996), (Wendel, et al., 2004). Data were analyzed in Kaplan-Meier format using the log-rank (Mantel-Cox) test for statistical significance. The p53 loss of heterozygosity polymerase chain reaction (LOH PCR) and immunophenotyping by surface marker analysis were as described (Wendel, et al., 2004).
A murine model of NOTCH1-induced T-ALL was used to directly test the oncogenic potential of the most promising miRNAs in vivo. Briefly, HPCs were transduced with NOTCH1 together with either empty vector or an miRNA and transplanted into irradiated, syngeneic recipients. Animals were monitored for leukemia onset by regular blood counts (FIG. 22a). […] Typically, animals receiving HPCs transduced with these miRNAs develop an acute leukemia by 75 days, while >80% of vector controls or animals receiving miR-30 (n=5, p=0.15) remain disease free at this time (FIG. 22b). Based on the in vitro screen and prediction, additional miRNAs were tested. […] Thus, miR-19b, miR-20a, miR-26a, miR-223 and also the less abundant miR-27a and miR-148/152 behave as oncogenes in a murine T-ALL model.
The mouse T-ALL model has been reported (Pear, et al., 1996), (Wendel, et al., 2004). Data were analyzed in Kaplan-Meier format using the log-rank (Mantel-Cox) test for statistical significance. […]

For data set [1], the system named is PTEN, BCL2L11, PHF6, IKZF1, NF1, FBXW7. Put plainly: 3′UTR reporter, quantitative PCR and immunoblot assays of tumor suppressor genes in murine leukemias. In kind it is cell-based. Particulars: murine T-ALLs expressing NOTCH1 and miRNA, mRNA, protein. As to the method: Immunoblots of whole cell lysates were performed as described (Wendel, et al., 2004). Antibodies were against Bim/Bcl2l11 (AAP-330, 1:1000, Assay Designs), Nf1 (sc67, 1:100, Santa Cruz), Cdc4/Fbxw7 (ab7405, 1:500, Abeam), Ikzf1 (sc-13039, 1:500, Santa Cruz), Phf6 (NB100-79861, 1:1000, Novus Biologicals), Pten (9559, 1:1000, Cell Signaling), tubulin (1:5000; Sigma, B-5-1-2) and actin (1:5000; Sigma, AC-15).
Total RNA and miRNA-enriched RNA was extracted using the Allprep DNA/RNA/Protein and miRNeasy Mini kits. Pathological diagnosis was by expert hematopathologists at Weill Cornell Medical Center. cDNA synthesis, PCR and analysis by the ΔΔ Ct method were as described (Mavrakis, et al., 2008) and utilized Taqman Gene Expression Assays: Bcl2l11 (Mm00437796_m1), BCL2L11 (Hs00197982_m1), Pten (Mm01212532_m1), PTEN (Hs02621230_s1), Nf1 (Mm00812430_m1), NF1 (Hs01035104_m1), Ikzf1 (Mm01187878_m1), IKZF1 (Hs00172991_m1), Fbxw7 (Mm00504452_m1), FBXW7 (Hs00217794_m1), Phf6 (Mm00804415_m1), and Mouse GAPD (GAPDH) (4352932, Applied Biosystems). Expression was normalized to RNU6B (001093, Applied Biosystems).
The mouse FBXW7 (bp 2793-4139; acc. no. NM_001177773), human NF1 (bp 10033-10666; acc. no NM_000267), human PHF6 (bp position 3271-4299; acc. no. NM_001015877) and Bim (bp. 3155-4773; acc. no. NM_009754) 3′UTR fragments were generated by PCR and cloned into the psi-CHECK-2 vector (Promega) with the exception of the IKZF1 3′UTR, which was purchased from Genecopoeia (cat no. HmiT000397b, by 2343-4471 of UTR). The assays were performed as described (Xiao, et al., 2008).
On the technique in general: A western blot detects proteins with antibodies after separation by electrophoresis.

For “miR-148: miRNA, UCAGUGCACUACAGAACUUUGU (SEQ ID NO: 8) (expressed or natural sequence; listed as Homo sapiens)”, the “leukemia onset / leukemia-free survival” value in the data set on NOTCH1-induced T-ALL is on record as “significant disease acceleration”. The “regulation of tumor suppressor genes” value in data set [1] is “regulate IKZF1, NF1 and FBXW7”.

These data come from patent US9624491B2, “Methods and compositions for the detection and treatment of cancer involving miRNAs and miRNA inhibitors and targets” (Memorial Sloan Kettering Cancer Center, priority 2010, dated 2017).
